Marks after values point to notes of the source that are not given here.
Assay: Percent purity of PTHrP analogue in coating with varying His-HCl concentration, three storage conditions (HPLC)
Type: physicochemical
Conditions: peptide 10 mg/mL in PBS
Method: The protein or polypeptide content in the formulation coated on the microneedle arrays was determined using an Agilent 1100 HPLC system (Agilent Technologies, Wilmington, Del.) equipped with a binary pump, well-plated thermostated autosampler, thermostated column compartment, and a diode array UV detector. A Zorbax 300SB-C8 column (Agilent Technologies, Wilmington, Del.) having a 5 μm particle size and 2.1×150 mm inner diameter was used for the separations. The column was maintained at 50° C. The mobile phase consisted of two eluents. Eluent A was 0.1% TFA (trifluoroacetic acid) in water and eluent B was 0.1% TFA in acetonitrile (Spectrum Chemical, New Brunswick, N.J.). A linear gradient from 80/20 to 50/50 (A/B) was applied over 30 minutes. The flow rate was 0.4 mL/minute and the UV detection wavelength was set at 214 nm. The total run time was 34 minutes and the sample injection volume was 15 μL.
Five sample formulations were prepared containing 10 mg/mL of [Glu^22,25,Leu^23,28,31,Aib^29,Lys^26,30]hPTHrP(1-34)NH2 and varying concentrations of L-histidine monohydrochloride (His-HCl) in PBS. The concentrations of His-HCl in the sample formulations range from 1 mg/mL to 10 mg/mL. A control formulation was also prepared containing 10 mg/mL of [Glu^22,25,Leu^23,28,31,Aib^29,Lys^26,30]hPTHrP(1-34)NH2 in PBS. […] Microneedle arrays were coated with either the sample or the control formulations. The coating was applied by dropwise addition of 40 μL of the formulation to the portion of the array defined by the octagon shaped pattern of microneedles. The flood coated arrays (both sample and control formulation coated) were dried in an oven at 35° C. for 1.5 hours followed by 30° C. for 15 hours.
After drying, the coated arrays were placed in a storage chamber that was maintained at one of three storage conditions: 40° C./96% RH (storage condition A); 25° C./60% RH (storage condition B); or 5° C./ambient RH. The [Glu^22,25,Leu^23,28,31,Aib^29,Lys^26,30]hPTHrP(1-34)NH2 content of the coated arrays was determined following storage in a chamber for 1 day, 3 days, 7 days, 14 days, 21 days, 28 days, and 2 months. The initial [Glu^22,25,Leu^23,28,31,Aib^29,Lys^26,30]hPTHrP(1-34)NH2 content was also determined using freshly coated arrays (both sample and control formulation coated). The arrays used to determine initial content were stored in a refrigerator at about 4° C. and analyzed within one day of being prepared. At the designated time point, an array was taken from the chamber and washed with PBS (3.5 mL) to remove the coating from the array. An aliquot of the resulting wash solution was analyzed for [Glu^22,25,Leu^23,28,31,Aib^29,Lys^26,30]hPTHrP(1-34)NH2 content using the HPLC method described above. The results were quantified against an external standard of [Glu^22,25,Leu^23,28,31,Aib^29,Lys^26,30]hPTHrP(1-34)NH2. At each time point, the percent purity of [Glu^22,25,Leu^23,28,31,Aib^29,Lys^26,30]hPTHrP(1-34)NH2 in the coating was determined by measuring the peak area for [Glu^22,25,Leu^23,28,31,Aib^29,Lys^26,30]hPTHrP(1-34)NH2 in the selected coating and dividing it by the total peak area measured for all [Glu^22,25,Leu^23,28,31,Aib^29,Lys^26,30]hPTHrP(1-34)NH2 related peaks.

[Glu^22,25,Leu^23,28,31,Aib^29,Lys^26,30]hPTHrP(1-34)NH2
Percent Purity of [Glu^22,25, Leu^23,28,31, Aib^29, Lys^26,30]hPTHrP(1-34)NH2 (Histidine-HCl 3.3 mg/mL, Storage Condition B (25° C./60% RH), Initial): 99.3% | Percent Purity of [Glu^22,25, Leu^23,28,31, Aib^29, Lys^26,30]hPTHrP(1-34)NH2 (Histidine-HCl 5 mg/mL, Storage Condition A (40° C./96% RH), Day 1): 98.7% | Percent Purity of [Glu^22,25, Leu^23,28,31, Aib^29, Lys^26,30]hPTHrP(1-34)NH2 (Histidine-HCl 5 mg/mL, Storage Condition A (40° C./96% RH), Day 3): 97.5% | Percent Purity of [Glu^22,25, Leu^23,28,31, Aib^29, Lys^26,30]hPTHrP(1-34)NH2 (Histidine-HCl 5 mg/mL, Storage Condition A (40° C./96% RH), Day 7): 92.0% | Percent Purity of [Glu^22,25, Leu^23,28,31, Aib^29, Lys^26,30]hPTHrP(1-34)NH2 (Histidine-HCl 5 mg/mL, Storage Condition A (40° C./96% RH), Day 14): 65.1% | Percent Purity of [Glu^22,25, Leu^23,28,31, Aib^29, Lys^26,30]hPTHrP(1-34)NH2 (Histidine-HCl 5 mg/mL, Storage Condition A (40° C./96% RH), Day 21, the sample for analysis contained insoluble impurities): 33.8^(a) percent | Percent Purity of [Glu^22,25, Leu^23,28,31, Aib^29, Lys^26,30]hPTHrP(1-34)NH2 (Histidine-HCl 5 mg/mL, Storage Condition A (40° C./96% RH), Initial): 99.0% | Percent Purity of [Glu^22,25, Leu^23,28,31, Aib^29, Lys^26,30]hPTHrP(1-34)NH2 (Histidine-HCl 5 mg/mL, Storage Condition B (25° C./60% RH), 2 months): 98.4% | Percent Purity of [Glu^22,25, Leu^23,28,31, Aib^29, Lys^26,30]hPTHrP(1-34)NH2 (Histidine-HCl 5 mg/mL, Storage Condition B (25° C./60% RH), Day 3): 98.9% | Percent Purity of [Glu^22,25, Leu^23,28,31, Aib^29, Lys^26,30]hPTHrP(1-34)NH2 (Histidine-HCl 5 mg/mL, Storage Condition B (25° C./60% RH), Day 7): 98.9% | Percent Purity of [Glu^22,25, Leu^23,28,31, Aib^29, Lys^26,30]hPTHrP(1-34)NH2 (Histidine-HCl 5 mg/mL, Storage Condition B (25° C./60% RH), Day 14): 98.9% | Percent Purity of [Glu^22,25, Leu^23,28,31, Aib^29, Lys^26,30]hPTHrP(1-34)NH2 (Histidine-HCl 5 mg/mL, Storage Condition B (25° C./60% RH), Day 28): 98.8% | Percent Purity of [Glu^22,25, Leu^23,28,31, Aib^29, Lys^26,30]hPTHrP(1-34)NH2 (Histidine-HCl 5 mg/mL, Storage Condition B (25° C./60% RH), Initial): 99.0% | Percent Purity of [Glu^22,25, Leu^23,28,31, Aib^29, Lys^26,30]hPTHrP(1-34)NH2 (Histidine-HCl 10 mg/mL, Storage Condition A (40° C./96% RH), Day 1): 98.7% | Percent Purity of [Glu^22,25, Leu^23,28,31, Aib^29, Lys^26,30]hPTHrP(1-34)NH2 (Histidine-HCl 10 mg/mL, Storage Condition A (40° C./96% RH), Day 3): 98.5% | Percent Purity of [Glu^22,25, Leu^23,28,31, Aib^29, Lys^26,30]hPTHrP(1-34)NH2 (Histidine-HCl 10 mg/mL, Storage Condition A (40° C./96% RH), Day 7): 97.7% | Percent Purity of [Glu^22,25, Leu^23,28,31, Aib^29, Lys^26,30]hPTHrP(1-34)NH2 (Histidine-HCl 10 mg/mL, Storage Condition A (40° C./96% RH), Day 14): 94.9% | Percent Purity of [Glu^22,25, Leu^23,28,31, Aib^29, Lys^26,30]hPTHrP(1-34)NH2 (Histidine-HCl 10 mg/mL, Storage Condition A (40° C./96% RH), Day 21): 80.8% | Percent Purity of [Glu^22,25, Leu^23,28,31, Aib^29, Lys^26,30]hPTHrP(1-34)NH2 (Histidine-HCl 10 mg/mL, Storage Condition A (40° C./96% RH), Initial): 99.0% | Percent Purity of [Glu^22,25, Leu^23,28,31, Aib^29, Lys^26,30]hPTHrP(1-34)NH2 (Histidine-HCl 10 mg/mL, Storage Condition B (25° C./60% RH), Day 3): 98.9% | Percent Purity of [Glu^22,25, Leu^23,28,31, Aib^29, Lys^26,30]hPTHrP(1-34)NH2 (Histidine-HCl 10 mg/mL, Storage Condition B (25° C./60% RH), Day 7): 98.9% | Percent Purity of [Glu^22,25, Leu^23,28,31, Aib^29, Lys^26,30]hPTHrP(1-34)NH2 (Histidine-HCl 10 mg/mL, Storage Condition B (25° C./60% RH), Day 14): 98.8% | Percent Purity of [Glu^22,25, Leu^23,28,31, Aib^29, Lys^26,30]hPTHrP(1-34)NH2 (Histidine-HCl 10 mg/mL, Storage Condition B (25° C./60% RH), Initial): 99.0% | Percent Purity of [Glu^22,25, Leu^23,28,31, Aib^29, Lys^26,30]hPTHrP(1-34)NH2 (Histidine-HCl none, Storage Condition B (25° C./60% RH), 2 months): 96.3% | Percent Purity of [Glu^22,25, Leu^23,28,31, Aib^29, Lys^26,30]hPTHrP(1-34)NH2 (Histidine-HCl none, Storage Condition B (25° C./60% RH), Day 3): 97.9% | Percent Purity of [Glu^22,25, Leu^23,28,31, Aib^29, Lys^26,30]hPTHrP(1-34)NH2 (Histidine-HCl none, Storage Condition B (25° C./60% RH), Day 7): 98.0% | Percent Purity of [Glu^22,25, Leu^23,28,31, Aib^29, Lys^26,30]hPTHrP(1-34)NH2 (Histidine-HCl none, Storage Condition B (25° C./60% RH), Day 14): 97.7% | Percent Purity of [Glu^22,25, Leu^23,28,31, Aib^29, Lys^26,30]hPTHrP(1-34)NH2 (Histidine-HCl none, Storage Condition B (25° C./60% RH), Day 28): 97.5% | Percent Purity of [Glu^22,25, Leu^23,28,31, Aib^29, Lys^26,30]hPTHrP(1-34)NH2 (Histidine-HCl none, Storage Condition B (25° C./60% RH), Initial): 98.7%
